Results published in publication PMC11897524 (Frontiers in Pharmacology, 2025).

Assays:
Assay in all cases: SelectScreen Z′-LYTE kinase assay
Type in all cases: biochemical
ABL1 = ABL1 (Homo sapiens, UniProt P00519)
Description: (§1) The kinase selectivity profile of BST-4 was performed by the SelectScreen kinase profiling service (Thermo Fisher Scientific). Kinase selectivity assay was performed using Z′-LYTE ™ screening protocol kit. Briefly, the test compounds were screened in 1% DMSO (final). For 10-point titrations, perform a 3-fold dilution starting at a starting concentration of 50 µM. Then 2.5 µL 4× test compound, 2.4 µL kinase buffer, 5 µL 2× kinase mixture and 2.5 µL 4× ATP solution was added in black 384-well plate. After shaking for 30 s, the plates were incubated for 60 min at room temperature. Add developing reagent solution and shake the plate for 30 s, then incubate for 1 h at room temperature. The Fluorescence intensity per well was read using a fluorescence plate reader. SelectScreen® Kinase Profiling Service used XLfit from IDBS. The dose response curve was curve fit to model number 205 (sigmoidal dose-response model) and inhibition rates were calculated. 50% inhibition was used as a activity threshold. IC50 values were calculated based on curve fitting.

ALK = ALK (Homo sapiens, UniProt Q9UM73)
Description: as §1

AXL = AXL (Homo sapiens, UniProt P30530)
Description: as §1

BLK = BLK (Homo sapiens, UniProt P51451)
Description: as §1

BMX = BMX (Homo sapiens, UniProt P51813)
Description: as §1

BTK = BTK (Homo sapiens, UniProt Q06187)
Description: as §1

DDR2 = DDR2 (Homo sapiens, UniProt Q16832)
Description: as §1

EPHA6 = EPHA6 (Homo sapiens, UniProt Q9UF33)
Description: as §1

EPHA7 = EPHA7 (Homo sapiens, UniProt Q15375)
Description: as §1

EPHA8 = EPHA8 (Homo sapiens, UniProt P29322)
Description: as §1

FER = FER (Homo sapiens, UniProt P16591)
Description: as §1

FES = FES (Homo sapiens, UniProt P07332)
Description: as §1

FGFR1 = FGFR1 (Homo sapiens, UniProt P11362)
Description: as §1

FGFR2 = FGFR2 (Homo sapiens, UniProt P21802)
Description: as §1

FGFR3 = FGFR3 (Homo sapiens, UniProt P22607)
Description: as §1

FGFR4 = FGFR4 (Homo sapiens, UniProt P22455)
Description: as §1

FLT1 = FLT1 (Homo sapiens, UniProt P17948)
Description: as §1

FLT3 = FLT3 (Homo sapiens, UniProt P36888)
Description: as §1

FLT4 = FLT4 (Homo sapiens, UniProt P35916)
Description: as §1

FRK = FRK (Homo sapiens, UniProt P42685)
Description: as §1

IGF1R = IGF1R (Homo sapiens, UniProt P08069)
Description: as §1

INSR = INSR (Homo sapiens, UniProt P06213)
Description: as §1

LCK = LCK (Homo sapiens, UniProt P06239)
Description: as §1

MUSK = MUSK (Homo sapiens, UniProt O15146)
Description: as §1

NTRK1 = NTRK1 (Homo sapiens, UniProt P04629)
Description: as §1

NTRK3 = NTRK3 (Homo sapiens, UniProt Q16288)
Description: as §1

PDGFRA = PDGFRA (Homo sapiens, UniProt P16234)
Description: as §1

PDGFRB = PDGFRB (Homo sapiens, UniProt P09619)
Description: as §1

RET = RET (Homo sapiens, UniProt P07949)
Description: as §1

SRC = SRC (Homo sapiens, UniProt P12931)
Description: as §1

SRMS = SRMS (Homo sapiens, UniProt Q9H3Y6)
Description: as §1

TXK = TXK (Homo sapiens, UniProt P42681)
Description: as §1

Chain of TXK (P42681 whole entry): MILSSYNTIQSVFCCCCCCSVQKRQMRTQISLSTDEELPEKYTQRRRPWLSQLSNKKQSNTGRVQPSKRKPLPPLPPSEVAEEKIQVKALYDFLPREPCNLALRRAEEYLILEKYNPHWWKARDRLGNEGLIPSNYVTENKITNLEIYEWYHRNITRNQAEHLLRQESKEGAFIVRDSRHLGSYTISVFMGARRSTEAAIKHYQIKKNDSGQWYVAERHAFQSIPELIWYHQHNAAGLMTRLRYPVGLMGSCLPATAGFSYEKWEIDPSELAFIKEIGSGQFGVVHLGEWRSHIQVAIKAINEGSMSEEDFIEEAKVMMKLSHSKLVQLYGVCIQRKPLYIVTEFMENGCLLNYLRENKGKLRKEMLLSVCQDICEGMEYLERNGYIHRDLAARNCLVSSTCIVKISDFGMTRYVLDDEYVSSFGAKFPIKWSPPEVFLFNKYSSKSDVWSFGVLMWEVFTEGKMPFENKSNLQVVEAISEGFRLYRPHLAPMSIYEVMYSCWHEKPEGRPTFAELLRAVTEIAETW
Chain of EPHA7 (Q15375 28-998): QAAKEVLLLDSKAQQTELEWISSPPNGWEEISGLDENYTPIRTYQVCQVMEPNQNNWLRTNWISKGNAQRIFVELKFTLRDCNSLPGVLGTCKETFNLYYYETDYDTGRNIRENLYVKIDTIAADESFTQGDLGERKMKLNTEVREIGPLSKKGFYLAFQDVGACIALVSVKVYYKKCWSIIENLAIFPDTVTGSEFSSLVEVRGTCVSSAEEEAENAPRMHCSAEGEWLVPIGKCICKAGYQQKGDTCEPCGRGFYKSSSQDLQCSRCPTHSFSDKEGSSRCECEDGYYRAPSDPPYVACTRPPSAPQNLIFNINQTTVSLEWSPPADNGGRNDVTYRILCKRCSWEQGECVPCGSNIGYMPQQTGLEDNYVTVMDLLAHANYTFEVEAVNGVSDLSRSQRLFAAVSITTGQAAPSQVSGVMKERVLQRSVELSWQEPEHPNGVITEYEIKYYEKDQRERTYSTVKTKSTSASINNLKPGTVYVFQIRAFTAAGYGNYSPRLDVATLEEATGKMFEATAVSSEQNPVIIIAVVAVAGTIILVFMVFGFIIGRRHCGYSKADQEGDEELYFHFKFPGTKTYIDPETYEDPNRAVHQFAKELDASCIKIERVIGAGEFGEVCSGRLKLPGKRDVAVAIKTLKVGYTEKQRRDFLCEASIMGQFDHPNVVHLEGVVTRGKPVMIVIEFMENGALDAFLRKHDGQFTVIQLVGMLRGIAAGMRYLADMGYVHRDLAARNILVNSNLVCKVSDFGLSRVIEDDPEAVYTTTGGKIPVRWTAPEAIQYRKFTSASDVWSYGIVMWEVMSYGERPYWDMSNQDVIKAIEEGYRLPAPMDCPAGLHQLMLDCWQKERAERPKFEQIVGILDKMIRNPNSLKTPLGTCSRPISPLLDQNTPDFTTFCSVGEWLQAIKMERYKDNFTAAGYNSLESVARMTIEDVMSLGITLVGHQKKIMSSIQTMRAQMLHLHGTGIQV
Chain of EPHA8 (P29322 28-1005): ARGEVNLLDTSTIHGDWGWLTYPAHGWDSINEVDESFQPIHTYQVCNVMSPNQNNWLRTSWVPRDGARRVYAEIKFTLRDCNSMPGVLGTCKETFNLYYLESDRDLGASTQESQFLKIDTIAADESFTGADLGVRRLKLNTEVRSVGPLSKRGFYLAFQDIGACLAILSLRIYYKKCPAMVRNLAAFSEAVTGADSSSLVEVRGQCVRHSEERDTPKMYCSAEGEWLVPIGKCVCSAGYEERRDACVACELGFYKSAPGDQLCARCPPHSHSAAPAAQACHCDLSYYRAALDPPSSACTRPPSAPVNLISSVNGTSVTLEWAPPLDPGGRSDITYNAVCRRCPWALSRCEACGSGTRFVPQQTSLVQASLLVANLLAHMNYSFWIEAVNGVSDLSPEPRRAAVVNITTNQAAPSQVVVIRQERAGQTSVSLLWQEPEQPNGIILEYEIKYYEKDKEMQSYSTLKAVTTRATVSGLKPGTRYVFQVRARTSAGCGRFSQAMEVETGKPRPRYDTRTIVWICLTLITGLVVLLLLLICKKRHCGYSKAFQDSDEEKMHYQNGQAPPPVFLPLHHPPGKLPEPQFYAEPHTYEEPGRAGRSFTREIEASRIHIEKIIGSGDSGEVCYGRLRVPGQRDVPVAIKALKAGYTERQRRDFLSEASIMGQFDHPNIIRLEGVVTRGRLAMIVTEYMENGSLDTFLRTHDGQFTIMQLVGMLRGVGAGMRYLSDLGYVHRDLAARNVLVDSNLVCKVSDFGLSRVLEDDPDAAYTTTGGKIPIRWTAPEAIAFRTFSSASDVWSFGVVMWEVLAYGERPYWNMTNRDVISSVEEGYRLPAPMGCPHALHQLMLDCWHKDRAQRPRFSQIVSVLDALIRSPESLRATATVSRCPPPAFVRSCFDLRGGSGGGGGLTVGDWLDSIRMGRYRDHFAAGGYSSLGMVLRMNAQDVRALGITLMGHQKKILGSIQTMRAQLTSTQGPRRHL
Chain of ALK (Q9UM73 19-1620): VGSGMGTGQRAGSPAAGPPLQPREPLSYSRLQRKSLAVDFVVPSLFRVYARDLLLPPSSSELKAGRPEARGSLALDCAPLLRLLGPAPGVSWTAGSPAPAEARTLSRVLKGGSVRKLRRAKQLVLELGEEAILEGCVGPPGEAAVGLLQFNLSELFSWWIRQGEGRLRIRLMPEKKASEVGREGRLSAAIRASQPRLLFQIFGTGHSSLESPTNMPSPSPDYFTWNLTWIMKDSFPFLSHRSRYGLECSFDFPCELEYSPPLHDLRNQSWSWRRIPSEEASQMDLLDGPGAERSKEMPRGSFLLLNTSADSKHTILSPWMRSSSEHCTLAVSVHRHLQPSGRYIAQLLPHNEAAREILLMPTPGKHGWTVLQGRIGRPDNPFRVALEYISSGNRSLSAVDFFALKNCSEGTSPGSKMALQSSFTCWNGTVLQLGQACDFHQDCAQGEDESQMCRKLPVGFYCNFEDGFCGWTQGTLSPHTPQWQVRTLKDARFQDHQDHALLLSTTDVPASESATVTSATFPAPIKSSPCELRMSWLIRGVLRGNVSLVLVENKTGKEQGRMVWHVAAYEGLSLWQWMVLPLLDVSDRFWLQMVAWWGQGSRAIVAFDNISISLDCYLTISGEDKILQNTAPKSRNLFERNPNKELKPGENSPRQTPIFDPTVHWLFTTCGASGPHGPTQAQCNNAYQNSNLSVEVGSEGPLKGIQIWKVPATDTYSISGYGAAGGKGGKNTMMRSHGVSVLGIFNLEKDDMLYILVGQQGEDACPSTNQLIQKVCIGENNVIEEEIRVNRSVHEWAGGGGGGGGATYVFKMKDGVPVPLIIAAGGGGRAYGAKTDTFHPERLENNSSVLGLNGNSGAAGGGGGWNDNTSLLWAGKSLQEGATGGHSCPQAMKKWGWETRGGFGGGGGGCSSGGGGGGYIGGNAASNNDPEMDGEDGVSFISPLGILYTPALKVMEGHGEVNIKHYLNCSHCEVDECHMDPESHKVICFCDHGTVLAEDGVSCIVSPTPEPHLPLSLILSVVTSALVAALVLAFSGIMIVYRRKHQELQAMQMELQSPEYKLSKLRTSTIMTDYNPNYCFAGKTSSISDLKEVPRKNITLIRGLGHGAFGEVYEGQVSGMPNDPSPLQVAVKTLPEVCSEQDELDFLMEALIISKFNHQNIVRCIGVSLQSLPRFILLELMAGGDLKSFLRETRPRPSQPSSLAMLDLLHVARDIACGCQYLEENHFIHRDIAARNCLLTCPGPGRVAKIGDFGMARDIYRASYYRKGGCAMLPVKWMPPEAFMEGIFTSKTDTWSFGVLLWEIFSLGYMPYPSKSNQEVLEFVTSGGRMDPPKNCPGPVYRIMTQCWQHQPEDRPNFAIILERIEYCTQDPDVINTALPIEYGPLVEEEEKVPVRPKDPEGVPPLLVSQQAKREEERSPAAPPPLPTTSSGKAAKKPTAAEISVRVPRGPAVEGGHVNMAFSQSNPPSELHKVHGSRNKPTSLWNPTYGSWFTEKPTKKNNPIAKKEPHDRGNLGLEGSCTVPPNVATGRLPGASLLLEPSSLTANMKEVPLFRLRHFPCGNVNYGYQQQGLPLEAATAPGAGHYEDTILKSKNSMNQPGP
Chain of BLK (P51451 whole entry): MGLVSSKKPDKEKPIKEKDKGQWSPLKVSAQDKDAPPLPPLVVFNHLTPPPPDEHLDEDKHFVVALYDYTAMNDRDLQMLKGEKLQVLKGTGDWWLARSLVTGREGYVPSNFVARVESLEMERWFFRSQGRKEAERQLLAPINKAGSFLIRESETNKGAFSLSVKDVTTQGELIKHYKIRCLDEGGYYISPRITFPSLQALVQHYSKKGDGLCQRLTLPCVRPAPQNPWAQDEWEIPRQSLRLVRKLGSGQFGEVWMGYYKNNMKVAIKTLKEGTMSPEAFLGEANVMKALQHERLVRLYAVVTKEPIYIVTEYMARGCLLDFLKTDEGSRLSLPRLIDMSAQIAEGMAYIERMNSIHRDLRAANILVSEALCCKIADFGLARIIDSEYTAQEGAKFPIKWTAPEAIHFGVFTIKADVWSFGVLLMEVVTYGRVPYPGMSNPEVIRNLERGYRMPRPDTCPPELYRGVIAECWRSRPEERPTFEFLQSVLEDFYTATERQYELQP
Chain of LCK (P06239 whole entry): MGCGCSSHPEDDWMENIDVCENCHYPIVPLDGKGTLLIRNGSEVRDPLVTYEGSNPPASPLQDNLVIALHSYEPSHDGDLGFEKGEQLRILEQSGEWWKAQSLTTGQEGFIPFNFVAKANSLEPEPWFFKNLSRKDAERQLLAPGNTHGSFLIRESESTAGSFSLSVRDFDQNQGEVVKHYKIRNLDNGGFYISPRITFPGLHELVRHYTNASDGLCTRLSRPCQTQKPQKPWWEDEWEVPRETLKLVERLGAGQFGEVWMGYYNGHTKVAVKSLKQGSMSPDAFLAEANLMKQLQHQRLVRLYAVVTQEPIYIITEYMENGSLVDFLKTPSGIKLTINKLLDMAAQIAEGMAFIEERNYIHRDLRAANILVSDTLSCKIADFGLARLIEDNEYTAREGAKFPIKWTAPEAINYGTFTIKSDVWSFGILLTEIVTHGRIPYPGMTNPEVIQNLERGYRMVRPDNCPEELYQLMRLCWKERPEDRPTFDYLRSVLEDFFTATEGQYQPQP

`CCS(=O)(=O)Cc1cnc(Oc2c(F)cc(F)cc2OCCCCOc2ccc(/C=C/c3cc(OC)cc(OC)c3)cc2)c(-c2cc(C)c3c(=O)[nH]ccn23)c1` [BST-4] showed an IC50 (ABL1) of over 10 µM, an inhibition at 1 µM (ABL1) of 0.31% and an IC50 (ALK) of over 10 µM. The inhibition at 1 µM (ALK) was 0.72%, the IC50 (AXL) was over 10 µM and the inhibition at 1 µM (AXL) was 1.83%. For the same compound, the IC50 (BLK) was over 10 µM, the inhibition at 1 µM (BLK) was 0.54% and the IC50 (BMX) was over 10 µM. For the same compound, the inhibition at 1 µM (BMX) was 3.05%, the IC50 (BTK) was over 10 µM and the inhibition at 1 µM (BTK) was 0.11%. For the same compound, the IC50 (DDR2) was over 10 µM, the inhibition at 1 µM (DDR2) was 0.7% and the IC50 (EPHA6) was over 10 µM. The inhibition at 1 µM (EPHA6) was 0.26%, the IC50 (EPHA7) was over 10 µM and the inhibition at 1 µM (EPHA7) was 0.91%. The IC50 (EPHA8) was over 10 µM, the inhibition at 1 µM (EPHA8) was 0.72% and the IC50 (FER) was over 10 µM. For the same compound, the inhibition at 1 µM (FER) was 0.03%, the IC50 (FES) was over 10 µM and the inhibition at 1 µM (FES) was 0.05%. The IC50 (FGFR1) was over 10 µM, the inhibition at 1 µM (FGFR1) was 0.59% and the IC50 (FGFR2) was over 10 µM. For the same compound, the inhibition at 1 µM (FGFR2) was 0.45%, the IC50 (FGFR3) was over 10 µM and the inhibition at 1 µM (FGFR3) was 2.84%. It also gave an IC50 (FGFR4) of over 10 µM, an inhibition at 1 µM (FGFR4) of 0.68% and an IC50 (FLT1) of over 10 µM. For the same compound, the inhibition at 1 µM (FLT1) was 0.14%, the IC50 (FLT3) was over 10 µM and the inhibition at 1 µM (FLT3) was 0.52%. For the same compound, the IC50 (FLT4) was over 10 µM, the inhibition at 1 µM (FLT4) was 1.82% and the IC50 (FRK) was over 10 µM. For the same compound, the inhibition at 1 µM (FRK) was 0.95%, the IC50 (IGF1R) was over 10 µM and the inhibition at 1 µM (IGF1R) was 0.91%. For the same compound, the IC50 (INSR) was over 10 µM, the inhibition at 1 µM (INSR) was 2.53% and the IC50 (LCK) was over 10 µM. For the same compound, the inhibition at 1 µM (LCK) was 0.77%, the IC50 (MUSK) was over 10 µM and the inhibition at 1 µM (MUSK) was 1.26%. For the same compound, the IC50 (NTRK1) was over 10 µM, the inhibition at 1 µM (NTRK1) was 0.67% and the IC50 (NTRK3) was over 10 µM. It also gave an inhibition at 1 µM (NTRK3) of 4.75%, an IC50 (PDGFRA) of over 10 µM and an inhibition at 1 µM (PDGFRA) of 0.37%. It also gave an IC50 (PDGFRB) of over 10 µM, an inhibition at 1 µM (PDGFRB) of 0.1% and an IC50 (RET) of over 10 µM. It also gave an inhibition at 1 µM (RET) of 0.41%, an IC50 (SRC) of over 10 µM and an inhibition at 1 µM (SRC) of 3.24%. It also gave an IC50 (SRMS) of over 10 µM, an inhibition at 1 µM (SRMS) of 0.53% and an IC50 (TXK) of over 10 µM. It also gave an inhibition at 1 µM (TXK) of 0.09%.
